“And” between values parts separate entries of the source, which are not always exact repeats. Identical values can stand only once. Like-named read-outs stand apart in the source and are kept apart here.
Legend:
Drosophila melanogaster [1] = test: Anoxia tolerance of Drosophila melanogaster after CO2 / H2S treatment; type: in vivo
Drosophila melanogaster [2] = test: as above; type: in vivo; details: adult flies
Method: Adult flies were introduced into 35 mL tubes made of glass with a gas-tight rubber stopper (Balsh tubes). This was usually accomplished by anesthetizing flies with CO2, moving groups of flies to vials with food to recover for at least 2 hours, and then transferring them into the Balsh tube. To exchange the gaseous environment in the Balsh tube, two 18 gauge needles were inserted into the rubber stopper, and gas is blown into one of the needles at 100 mL/min. To prevent dessication, gasses were humidified by bubbling through 10 mL of water before passing it through the Balsch tube. The water in the bubbler is equilibrated with the gas for at least 20 minutes before starting the experiment.
For “stopped-flow” experiments, gas exchange proceeded for 60 minutes before sealing the tube. For “low-flow” experiments, gas flow continued throughout the experiment. CO2 was from the house source (100%), and anoxic environments were established by flushing out room air with 100% nitrogen (N2). Care was taken to prevent introduction of room air into the system while switching the atmosphere from CO2 to N2.
After anoxic treatment, oxygen was reintroduced into the Balsh tube by flushing with house air for 20 minutes. The rubber stopper was then removed and a food vial is inverted over the top of the Balsh tubes with Parafilm. […] Viability was scored at least 18 hours after the end of anoxic treatment. After two weeks, if the food vials contained larvae and/or pupae the flies were considered to be fertile.

mice [3] = test: Gas matrix: metabolic flexibility in altered gas environments, mice; type: in vivo, mouse; details: for depression in metabolic rate, Mouse: ambient 7 to 10° C., 6-hour treatment
Method: (§1) Metabolic flexibility was evaluated in mice rats and dogs using altered gas environments. Three parameters were used to define this reduction in metabolism including changes in carbon dioxide production, oxygen consumption measured by respirometry, and core temperature as measured using telemetry. In experiments with mice and rats the animals were placed into sealed chambers with one gas import and one gas export. For dogs a mask was placed over the snout of the animal with two hoses (import and export) attached to the mask. The flow rate of gas for each of the animals mice—500 cc per minute, rats—2 liters per minute, and dogs 40 liters per minute. Each atmosphere was constructed from compressed gas by dilution into room air unless otherwise noted. For rat and mouse experiments the ambient temperature was 7 to 10° C. during exposure to the test gases. For dogs ambient temperature was room temperature (22° C.).
(§2) Evidence of depression in metabolic rate of greater than 5-fold as judged by carbon dioxide production or oxygen consumption during a 6-hour treatment is described by “Yes”; […]; “N/D” denotes experiments not done. The temperature drop in the dog experiment (Carbon dioxide+low oxygen+Helium) was approximately 1.5° C. over the course of 30 minutes of exposure. This drop in temperature was considered significant because the dog was 12 kg and no such temperature drop was seen during extensive baseline recording of the animal in room air.

dogs = test: Gas matrix: metabolic flexibility in altered gas environments, dogs; type: in vivo, dog; details: 9%
Method: as §1, §2

rats = test: Gas matrix: metabolic flexibility in altered gas environments, rats; type: in vivo, rat; details: ambient 7 to 10° C., 6-hour treatment
Method: as §1, §2

mice [4] = details: mouse, in vivo; for effect on body (subcutaneous) temperature / effective dose (to lower subcutaneous temperature): sc
mice [5] = test system: mice; design: species or system mouse (C57BL/6); details: mouse, in vivo; for survival in lethal hypoxia: sc
[6] = cited from earlier work
nematodes (C. elegans) = test: Nematode lethal hypothermia screening assay; type: in vivo; details: carbon monoxide atmosphere at room temperature prior to 4 degrees C. for 16 hrs
Excerpt: A screening assay was established using nematodes (C. elegans). […] Worms were exposed for X minutes at room temperature to an atmosphere containing Y % carbon monoxide, prior to exposing them to 4 degrees C. for 16 hrs. […] Since carbon monoxide is a known stasis inducer in nematodes and neonatal human foreskin keratinocytes, the nematode assay is capable of identifying stasis inducing compounds as such by their ability to increase the survivability of worms exposed to lethal hypothermia when the worms are pre-equilibrated in the stasis inducer or other active compound.

[7] = test system: human foreskin keratinocytes; type: cell-based
mice [8] = type: in vivo, mouse
[9] = previously reported in the literature; cited from earlier work
[10] = 100 ppb H2Se, less than 10 minutes (FIG. 26)

O=C=O [CO2, carbon dioxide]
survival (Drosophila melanogaster [1]; adult flies, CO2 then N2 with bubbler water not equilibrated with N2, 13 h anoxic exposure): no flies survived
movement upon reoxygenation (Drosophila melanogaster [1]; larvae, pretreated, 24.5 h anoxia): can resume movement
pupae formed (Drosophila melanogaster [1]; pool of 0-19 h old embryos, CO2 10 min pretreatment, anoxia 24 h): 20 pupae
survival (Drosophila melanogaster [2]; 100% CO2 pretreatment 30 minutes, 19 h anoxic exposure, stopped-flow): 54%
survival (Drosophila melanogaster [2]; 100% CO2 pretreatment 90 minutes, 19 h anoxic exposure, stopped-flow): 28%
survival (Drosophila melanogaster [2]; 10 min CO2 pretreatment, 17, 22, and 24 h of anoxia, low-flow): no survival was observed
survival (Drosophila melanogaster [2]; CO2 10 minutes before 20 h anoxic exposure, low-flow (no H2S)): 6%
survival (Drosophila melanogaster [2]; CO2 pretreatment and CO2 for 20 minutes immediately following anoxic exposure): no flies survived
depression in metabolic rate, Mouse (mice [3]; 15%): Yes 15% (Evidence of depression in metabolic rate of greater than 5-fold as judged by carbon dioxide production or oxygen consumption during a 6-hour treatment is described by “Yes”)
control of metabolic flexibility (mice [3]; mice, 15% CO2): affords control of metabolic flexibility
tidal volume and respiration rate (mice [3]; mice, 15% CO2): tidal volume increases but respiration rate remains unchanged
depression in metabolic rate, Dog (dogs; mask, room temperature (22° C.)): No 9% (“No” (reduction or less than a 5-fold reduction in these values is described as such)
core body temperature (CBT) (dogs; dog, 12% and 15% carbon dioxide in room air (FIG. 40)): A similar drop
depression in metabolic rate, Rat (rats; 15%): Yes 15% (Evidence of depression in metabolic rate of greater than 5-fold as judged by carbon dioxide production or oxygen consumption during a 6-hour treatment is described by “Yes”)

CC(O)=S [Thioacetic acid]
effect on body (subcutaneous) temperature (mice [4]): reduced body temperature
protection from lethal hypoxia (mice [5]): did not enhance survival in hypoxia

O=C(O)CS [thioglycolic acid]
toxicity (mice [4]): toxic at the effective temperature reducing dose
effect on body (subcutaneous) temperature (mice [4]): reduced body temperature

CC(=O)N[C@@H](CS)C(=O)O [N-acetyl-L-cysteine]
effect on body (subcutaneous) temperature (mice [4]): did not reduce subcutaneous temperature

C[S-].[Na+] [sodium thiomethoxide]
effective dose (to lower subcutaneous temperature) (mice [4]): 4.61 mmol/kg
survival in lethal hypoxia (mice [5]): 60 min

N=C(N)[SeH] [selenourea]
effect on body (subcutaneous) temperature (mice [4]): reduced body temperature
protection from lethal hypoxia (mice [5]): did not enhance survival in hypoxia

NCCCNCCSP(=O)(O)O [phosphorothioic acid S-(2-((3-aminopropyl)amino)ethyl) ester]
effect on body (subcutaneous) temperature (mice [4]): reduced body temperature
protection from lethal hypoxia (mice [5]): did not enhance survival in hypoxia

[C-]#[O+] [CO, carbon monoxide]
lethality and suspended animation (C. elegans embryos; 100% carbon monoxide, 24 hr, room temperature): not lethal and induced reversible suspended animation
survival (C. elegans embryos; 500 ppm oxygen balanced with carbon monoxide, 24 hr): entered into suspended animation and survived
survival to adulthood (C. elegans embryos; hif-1(ia04) embryos, 0.25 kPa O2/CO, 24 hrs): 83.9% ± 13.8
survival to adulthood (C. elegans embryos; hif-1(ia04) embryos, 0.25 kPa O2/CO, 24 hrs, listed as carbon monoxide): 84.0%
survival to adulthood (C. elegans embryos; wild-type (N2) embryos, 0.25 kPa O2/CO, 24 hrs): 78.7% ± 21.9
survival to adulthood (C. elegans embryos; wild-type (N2) embryos, 0.25 kPa O2/CO, 24 hrs, listed as carbon monoxide): 78.7%
viability to adulthood (C. elegans embryos; wild-type embryos, 0.05 kPa O2 balanced with carbon monoxide, 24 hrs): 96.2%
survival to adulthood (C. elegans embryos; wild-type embryos, 101 kPa CO (100% CO), 24 hrs): 81.5%
symptoms ([6]; 50 ppm): no symptoms
symptoms ([6]; 200 ppm, within two-three hours): slight headache
symptoms ([6]; 400 ppm, within one to two hours): frontal headache
symptoms ([6]; 800 ppm, within 45 minutes): dizziness, nausea, and/or convulsions
lethality ([6]; around 1000 ppm, exposure for more than around 1-2 minutes): can expire
survival after exposure to cold (nematodes (C. elegans)): survived with high viability
survival (Drosophila melanogaster [2]; treated only with CO for 10 min before the anoxic exposure (18.5 h)): 11%
# cells recovered [7]: 167
Total colonies [7]: 542 colonies (many of which were very and 780 colonies (many of which were very
dead (tb+), SUM [7]: 61
fraction alive [7]: 0.91 and 0.50 and 0.77 and 0.83 and 0.54 and 0.80
fraction alive, SUM [7]: 0.63
growth of keratinocyte populations [7]: significant growth
live (tb−), SUM [7]: 106
survival of skin cells relative to room air [7]: 100 fold

OC1CCSCC1 [tetrahydrothiopyran-4-ol]
survival in lethal hypoxia (mice [5]): 15 min

[SeH2] [H2Se, hydrogen selenide]
depression in metabolic rate, Mouse (mice [3]; 0.0001% in room air): Yes 0.0001% (Evidence of depression in metabolic rate of greater than 5-fold as judged by carbon dioxide production or oxygen consumption during a 6-hour treatment is described by “Yes”)
core body temperature (CBT) (mice [3]; mouse, 1.2 ppm of H2Se, 2 hours and 10 minutes, 5° C. ambient (FIG. 34)): significant drop in CBT
depression in metabolic rate, Rat (rats; 0.003% in room air): Yes 0.003% (Evidence of depression in metabolic rate of greater than 5-fold as judged by carbon dioxide production or oxygen consumption during a 6-hour treatment is described by “Yes”)
core body temperature and respiration (mice [8]; 10 ppb of H2Se (FIG. 27)): reduction in core body temperature and respiration
core body temperature (mice [8]; [10]): drop in core body temperature
reduction in metabolic activity as evidenced by respiration (mice [8]; [10]): 3 fold
reversibility of effects (mice [8]; tests used to evaluate reversibility with H2S): fully reversible
concentration lethal to animals [9]: greater than 1 ppm

OCCS [2-mercapto-ethanol]
toxicity (mice [4]): toxic at the effective temperature reducing dose
effect on body (subcutaneous) temperature (mice [4]): reduced body temperature

CSC [dimethyl sulfide]
effect on body (subcutaneous) temperature (mice [4]): did not reduce subcutaneous temperature

NCCS [cysteamine]
effective dose (to lower subcutaneous temperature) (mice [4]): 7.58 mmol/kg
survival in lethal hypoxia (mice [5]): 45 min

N#C[S-].[Na+] [sodium thiocyanate]
effective dose (to lower subcutaneous temperature) (mice [4]): 4.67 mmol/kg

SCCOCCS [2-mercaptoethyl ether]
toxicity (mice [4]): toxic at the effective temperature reducing dose
effect on body (subcutaneous) temperature (mice [4]): reduced body temperature

[SeH2] [sodium selenide]
effect on body (subcutaneous) temperature (mice [4]): did not reduce subcutaneous temperature

CS(=O)[O-].[Na+] [sodium methane sulfinate]
effect on body (subcutaneous) temperature (mice [4]): did not reduce subcutaneous temperature

Source: patent US8822535B2 (priority 2005, dated 2014)
